Measurements as given in patent EP2111861A1, “Compositions of phosphodiesterase type IV inhibitors” (Ranbaxy Laboratories Limited, priority 2008, dated 2009).

Columns and labels:
TNF-α release = assay: Cell based Assay for TNF-α release, PDE IV inhibitor in combination with corticosteroids; conditions: Compound No. 266 in combination with corticosteroid (not named), human PBMC
Protocol: Blood was collected in heparin or EDTA vacutainers from healthy human volunteers and Peripheral Blood Mononuclear Cells isolated using Ficoll Hypaque gradient. The cells were resuspended in serum free RPMI 1640 medium at a concentration of 2 million cells/ml). 1 ml of this cell suspension was co-incubated with 20 µl of compound, alone or in combination (PDE IV inhibitor and corticosteroid), for 10 min in a flat bottom 96 well microtiter plate The aforesaid compounds were dissolved in DMSO initially and diluted in medium for a final concentration of 0.2 % DMSO. LPS ([…], final concentration) was then added at a volume of 10 µl per well. After 30 min, 20 µl of fetal calf serum (final concentration of 10 %) was added to each well. Cultures were incubated overnight at 37 °C in an atmosphere of 5 % CO2 and 95 % air. Supernatant was then removed and tested by ELISA for TNF-α release using a commercial kit (e.g. BD Biosciences). The level of TNF-α in treated wells was compared with the vehicle treated controls and inhibitory potency of compound was expressed as IC50 values calculated by from percent inhibition values using Graph pad prism. […] Percent inhibition = 100-(Percent TNF-α drug treated)/(Percent TNF-α in vehicle treated) × 100 [formula]

[1] = system: LPS induced rat neutrophilia; assay: LPS induced rat neutrophilia model, PDE IV inhibitor in combination with corticosteroids; format: in vivo; conditions: Compound No. 266 in combination with corticosteroid (not named), intratracheal, neutrophil count in BAL
Protocol: PDE-4 inhibitor and corticosteroids were instilled intratracheally under anesthesia at different doses, either alone or in combination. LPS challenge: One hour after drug instillation, (LPS 20 µg/200 µl of PBS) was instilled intratracheally. One group of vehicle treated rats were instilled with 200 µl of phosphate buffered saline (PBS) and served as negative control. Bronchoalveolar lavage (BAL): Two hours after LPS challenge, bronchoalveolar lavage was performed; the animals were sacrificed using thiopentone sodium (150 mg/kg/i.p.). Trachea was cannulated and BAL was performed using Hank's Buffer salt solution (HBSS) (5 ml x 10 times). The bronchoalveolar lavage fluid was centrifuged at 800 g for 5 min, at 4°C and the pellet was resuspended in 1 ml HBSS. Total leukocyte count was performed in the resuspended sample by using hemocytometer. A cytocentrifuge preparation was made using the resuspended bronchoalveolar lavage fluid on a glass slide, stained with Leishmann's stain and then differential leukocyte counts was performed for computation of neutrophil. Statistical significance of each parameter in different treatment groups was determined with respective to vehicle control group using one-way analysis of variance followed by Dunnett's 't' test for multiple comparison. A p level of ≤ 0.05 was considered to be statistically significant.

[2] = system: LPS induced airway hyperreactivity; assay: LPS induced airway hyperreactivity (PC100, Penh), PDE-IV inhibitor in combination with muscarinic receptor antagonist; format: in vivo, Wistar rats; conditions: intratracheal
Protocol: MRA (1ng/kg to 1mg/kg) and PDE-IV inhibitor (1ng/kg to 1mg/kg) were instilled intratracheally under anesthesia either alone or in combination.
Wistar rats weighing 200±20gm were used in the study. Rats had free access to food and water. On the day of experiment, animals were exposed to lipopolysaccharide (LPS, 100µg/ml) for 40 min. One group of vehicle treated rats was exposed to phosphate buffered saline (PBS) for 40 min. four hours after LPS/PBS exposure, animals were placed inside a whole body plethysmograph (Buxco Electronics, USA) and exposed to PBS or increasing concentration of acetylcholine (1, 6, 12, 24, 48 and 96 mg/ml) aerosol until Penh values (index of airway resistance) of rats attained 2 times the value (PC-100) seen with PBS alone. The respiratory parameters were recorded online using Biosystem XA software, (Buxco Electronics, USA). Penh, at any chosen dose of acetylcholine was expressed as percent of PBS response and using a nonlinear regression analysis PC100 (2 folds of PBS value) values were computed. Percent inhibition was computed using the following formula. % Inhibition = (PC100_LPS -PC100_TEST)/(PC100_LPS -PC100_PBS) × 100 [formula] Where, PC100LPS = PC100 in vehicle treated and LPS challenged group PC100TEST = PC100 in group treated with a given dose of test compound PC100PBS = PC100 in vehicle treated group challenged with PBS

[3] = system: TNF-α release from human PBMCs; assay: Cell based Assay for TNF-α release, PDE IV inhibitor in combination with p38 MAP Kinase inhibitors; conditions: inhibiting TNF-α release from human PBMCs, LPS stimulated, compound alone
Protocol: Blood was collected in heparin or EDTA vacutainers from healthy human volunteers and Peripheral Blood Mononuclear Cells isolated using Ficoll Hypaque gradient. The cells were resuspended in serum free RPMI 1640 medium at a concentration of 2 million cells/ml.). 1 ml of this cell suspension was co-incubated with 20 µl of compound, alone or in combination, for 10 min in a flat bottom 96 well microtiter plate. Compounds were dissolved in DMSO initially and diluted in medium for a final concentration of 0.2 % DMSO. LPS (1 µg/ml, final concentration) was then added at a volume of 10 µl per well. After 30 min, 20 µl of fetal calf serum (final concentration of 10 %) was added to each well. Cultures were incubated overnight at 37 °C in an atmosphere of 5 % CO2 and 95 % air. Supernatant were then removed and tested by ELISA for TNF-α release using a commercial kit (e.g. BD Biosciences). The level of TNF-α in treated wells was compared with the vehicle treated controls and inhibitory potency of compound was expressed as IC50 values calculated from the percent inhibition values by using Graph pad prism. Percent inhibition = 100-(Percent TNF-α drug treated)/(Percent TNF-α in vehicle treated) × 100 [formula]

[4] = Compound No. 266 in combination with Tiotropium (MRA), PC100

Question: How did the “Combination Index” value (TNF-α release) turn out when `COc1cc(C2=NO[C@]3(CCOC3)C2)ccc1OC(F)F` (single isomer, unassigned) [Compound No. 266, (5S or 5R)-3-[4-(Difluoromethoxy)-3-methoxyphenyl]-1,7-dioxa-2-azaspiro[4.4]non-2-ene] was run?
Answer: 0.21

Question: What about the synergy with corticosteroids (TNF-α release) of the same compound?
Answer: synergy

Question: What about the “Combination Index” value [1] of the same compound?
Answer: 0.58

Question: And the synergy with corticosteroids [1]?
Answer: synergy

Question: And the “effect when administered alone” value ([2]; 10 µg/kg)?
Answer: ineffective

Question: What about the Combination Index [2, 4] of the same compound?
Answer: 0.26

Question: What about the “synergy with Tiotropium (MRA)” value [2, 4] of the same compound?
Answer: synergy

Question: What about the IC50 [3] of the same compound?
Answer: 76 nM

Question: How did the IC50 ([3]; PBMC) turn out when `Cc1ccccc1-c1cc2cnc(NC3CCN(S(C)(=O)=O)CC3)nc2n([C@H]2CCOC2)c1=O` [Compound No. 44a, 6-(2-Methylphenyl)-2-{[1-(methylsulfonyl)piperidin-4-yl]amino}-8-[(3S)-tetrahydrofuran-3-yl]pyrido[2,3-d]pyrimidin-7(8H)-one] was run?
Answer: 3 nM

Question: How did the IC50 ([3]; PBMC) turn out when `Cc1ccccc1-c1cc2cnc(NC3CCN(S(C)(=O)=O)CC3)nc2n([C@@H]2CCOC2)c1=O` [Compound No. 46a, 6-(2-Methylphenyl)-2-{[1-(methylsulfonyl)piperidin-4-yl]amino}-8-[(3R)-tetrahydrofuran-3-yl]pyrido[2,3-d]pyrimidin-7(8H)-one] was run?
Answer: 2 nM

Question: How did the IC50 ([3]; PBMC) turn out when `Cc1ccccc1-c1cc2cnc(NC3CCN(C(=O)NC(C)C)CC3)nc2n([C@@H]2CCOC2)c1=O` [Compound No. 47a, N-Isopropyl-4-({6-(2-methylphenyl)-7-oxo-8-[(3R)-tetrahydrofuran-3-yl]-7,8-dihydropyrido[2,3-d]pyrimidin-2-yl}amino)piperidine-1-carboxamide] was run?
Answer: 22 nM

Question: `Cc1n(CCCOC(=O)[C@](O)(c2ccccc2)[C@@H]2CCC(F)(F)C2)cc[n+]1Cc1ccccc1.[Br-]` [Compound No. 104aa, 3-Benzyl-1-[3-({(2R)-2-[(1R)-3,3-difluorocyclopentyl]-2-hydroxy-2-phenylacetyl}oxy)propyl]-2-methyl-1H-imidazol-3-ium bromide] was tested. Which “effect when administered alone” value ([2]; 10 ng/kg) did it give?
Answer: not effective

Question: `O=c1ncn2nc(Sc3ccc(F)cc3F)ccc2c1-c1c(Cl)cccc1Cl` [Vx-745, reference compound] was tested. Which IC50 ([3]; PBMC) did it give?
Answer: 14 nM
